Experimental data taken from patent publication US10071034B2, “Solvent compositions” (Amyris, Inc., priority 2014, dated 2018).

Experiment: Oxidative stability
Type: physicochemical
Experimental: For each sample, a test composition was stored for 104 weeks at 25° C. The amount of composition remaining was tested and compared to the amount at the initial time. Further samples were stored for 6 days at 60° C. The amount of composition remaining was tested and compared to the amount at the initial time.

**Q.** Which “amount of composition remaining compared to initial” value (6 Days @ 60° C.) does the source give for `C=C(C)[C@H]1CC=C(C)CC1` [d-limonene] here?
**A.** The value was 52.3%.

**Q.** And the “amount of composition remaining compared to initial” value (104 Weeks @ 25° C.)?
**A.** The value was 24.0%.

**Q.** And the “oxidative stability in comparison” value (d-limonene versus Example 2 composition)?
**A.** Its value is “less than that of the present solvent embodiment”.
